Laboratory results as given in patent publication US6331555A, “Treatment of platelet derived growth factor related disorders such as cancers” (priority 1999, dated 2001).
Read-outs that look alike come from different tables or passages of the source. Values belong to the compound of their own block, whether it stands above or below them.

Columns and labels:
C6 cells = assay: C6 SRB growth assay; format: cell-based, rat
C6 glioma cells = assay: C6 glioma SC xenograft in mice; format: in vivo; details: for inhibition in vivo at 15 mg/kg: Rattus norvegicus, C6 glioma, sc, read-out: C6 in vivo EFFICACY
Outline: (§1)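 C6 (3×10^6) or SKOV-3 (1×10^7) cells in PBS were implanted into the hind flank of female Balb/c nu/nu mice on Day 0; U87MG and U118MG went into athymic mice. Tumors were caliper-measured over 3–6 weeks, with volume as length×width×height. P values came from Student's t-test.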

U1242 cells [1] = assay: Cytotoxicity in U1242 cells, LDH; format: cell-based; details: Homo sapiens, read-out: CYTOXICITY LDH U1242 LD50
Protocol: (§2) The cytotoxicity of each drug was also determined. The cells were plated as described above. Following incubation with drug, cell survival was measured by an MTT assay as described by Mossman J. Immunol. Methods 65:55-63 (1983), or by measuring the amount of LDH released (Korzeniewski and Callewaert, J. Immunol. Methods 64:313 (1983); Decker and Lohmann-Matthes, J. Immunol. Methods 115:61 (1988) .

PDGFR = assay: Receptor tyrosine kinase inhibition, PDGFR; format: cell-based; details: for IC50: W = done in Western assay, read-out: PDGFR IC50 (W)
Outline: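 Serum-starved cells treated with test compound for 2 hr at 37° C, then receptor phosphotyrosine measured by ELISA with anti-phosphotyrosine antibody and goat anti-rabbit IgG. Western blots used 7 min ligand stimulation at room temperature, vanadate-containing lysis and anti-phosphotyrosine immunodetection with ECL.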

U1242 cells [2] = assay: Cytotoxicity in U1242 cells, MTT; format: cell-based, human; details: for LD50 compared to A10: MTT or LDH; for CC50: Homo sapiens, read-out: CYTOXICITY MTT U1242 LD50, heading: CYTOXICITY MTT U1242 LD50
Protocol: as §2

[3] = C6 glioma SC xenograft in mice; format: in vivo; details: rat, in vivo, ip; for mortality at 336 h: 15 mg/kg
Outline: as §1

[4] = heading: CYTOXICITY LDH U1242 LD50
[5] = Rattus norvegicus, C6; read-out: C6 SRB IC50

SMILES: Cc1oncc1C(=O)Nc1ccc(C(F)(F)F)cc1 [Compound A10, 5-methylisoxazole-4 carboxylic acid-(4-trifluromethyl)-anilide]
IC50 (C6 cells; Rattus norvegicus, C6; PDGF-R expression ++; read-out: SRB): 0.3 µM | inhibition in tumor growth (C6 glioma cells; 15 mg/kg/day (DMSO), after 20 days): greater than 90% | % Inhibition (C6 glioma cells; 15 mg/kg/day, DMSO): 90% | % Inhibition (C6 glioma cells; 15 mg/kg/day, PBTE): 92% | % Inhibition (C6 glioma cells; 20 mg/kg (DMSO), 2 days): 77% | % Inhibition (C6 glioma cells; 20 mg/kg (DMSO), 4 days): 60% | % Inhibition (C6 glioma cells; 20 mg/kg (PBTE:D5W), daily): > 95% | % Inhibition (C6 glioma cells; 20 mg/kg, PBTE:D5W): > 95% | % Inhibition (C6 glioma cells; 20 mg/kg/day, DMSO): 95% | % Inhibition (C6 glioma cells; 20 mg/kg/day, PBTE): > 95% | % Inhibition (C6 glioma cells; 30 mg/kg (DMSO), 2 days): 91% | % Inhibition (C6 glioma cells; 30 mg/kg (DMSO), 3 days): 87% | % Inhibition (C6 glioma cells; 40 mg/kg (PBTE), 2 days): > 95% | % Inhibition (C6 glioma cells; 40 mg/kg/2 days, PBTE): > 95% | % Inhibition (C6 glioma cells; 60 mg/kg (PBTE), weekly): 51% | % Inhibition (C6 glioma cells; 100 mg/kg (PBTE), weekly): 63% | efficacy of formulations (C6 glioma cells; PBTE, PBTE:D5W and DMSO): equivalent in vivo inhibition of tumor growth | % Inhibition (C6 glioma cells; nu/nu, 20 mg/kg/day, day 21): > 95% | % Inhibition (C6 glioma cells; nu/nu†, 20 mg/kg/day, day 18, delayed start): 84% | In Vivo inhibition (C6 glioma cells; xenografted athymic mice): 95%

SMILES: N#CC(=Cc1c[nH]c2ccccc12)c1[nH]nc(N)c1C#N [Compound D14]
CC50 (U1242 cells [1]): > 100 µM | PDGF-R phosphorylation (PDGFR): inhibit PDGF-R phosphorylation

SMILES: COc1cc2ncc(-c3ccccc3)nc2cc1OC [Compound G14]
CC50 (U1242 cells [1]; [4]): > 100 µM | LD50 compared to A10 (U1242 cells [2]): LD50 less than A10 | PDGF-R phosphorylation (PDGFR): inhibit PDGF-R phosphorylation | IC50 (PDGFR): 0.8 µM | IC50 (C6 cells; [5]): > 50 µM | mortality at 336 h [3]: 0% | inhibition in vivo at 15 mg/kg (C6 glioma cells; at 15 mg/kg): 36%

SMILES: Cc1cc2ncc(-c3ccccc3)nc2cc1C [Compound G13]
CC50 (U1242 cells [1]; [4]): > 100 µM | CC50 (U1242 cells [2]): 100 µM | LD50 compared to A10 (U1242 cells [2]): LD50 less than A10 | PDGF-R phosphorylation (PDGFR): inhibit PDGF-R phosphorylation | IC50 (C6 cells; Rattus norvegicus, C6, read-out: C6 SRB IC50): > 50 µM | mortality at 336 h [3]: 0% | inhibition in vivo at 15 mg/kg (C6 glioma cells): 12%

SMILES: c1ccc(-c2cnc3cc4ccccc4cc3n2)cc1 [Compound G22]
CC50 (U1242 cells [1]): > 100 µM | IC50 (C6 cells; [5]): > 6 µM | mortality ([3]; 20 mg/kg): 0% | C6 in vivo EFFICACY (C6 glioma cells; at 20 mg/kg): no effect

Second part, led by results:

IC50 (PDGFR): 8 µM
SMILES: N#CC(=Cc1c[nH]c2ccccc12)C(N)=S [Compound D11]
CC50 (U1242 cells [2]): 90 µM

IC50 (PDGFR): 10 µM
SMILES: Cc1cc2nc(-c3ccccc3)c(=O)[nH]c2cc1C [Compound G18]
CC50 (U1242 cells [1]): > 100 µM

IC50 (PDGFR): 19 µM
SMILES: CN(C)CCCn1cc(C=C(C#N)c2[nH]nc(N)c2C#N)c2ccccc21 [Compound D15]
CC50 (U1242 cells [2]): 80 µM

IC50 (PDGFR): 5 µM
SMILES: O=c1c2ccccc2nc(C=Cc2ccc(O)c(O)c2)n1CCO [Compound F10]
IC50 (C6 cells; [5]): > 12.5 µM
